According to ChEMBL document CHEMBL1150411, “4-(Phenylaminomethylene)isoquinoline-1,3(2H,4H)-diones as potent and selective inhibitors of the cyclin-dependent kinase 4 (CDK4)” (J Med Chem, 2008):
In brackets after ≈: the same amount, converted by molar mass.

What was measured:
[1] = target: Cyclin-dependent kinase 2 (Homo sapiens, UniProt P24941); experiment: Inhibition of CDK2/cyclin E expressed in Sf9 cells-baculovirus system assessed as retinoblastoma susceptibility gene product phosphorylation
[2] = target: Cyclin-dependent kinase 1/cyclin B1 (Homo sapiens, UniProt P06493); experiment: Inhibition of CDK1/Cyclin B1 expressed in Sf9 cells-baculovirus system assessed as retinoblastoma susceptibility gene product phosphorylation
Cyclin-dependent kinase 1/cyclin B1, sequence (P06493 whole entry): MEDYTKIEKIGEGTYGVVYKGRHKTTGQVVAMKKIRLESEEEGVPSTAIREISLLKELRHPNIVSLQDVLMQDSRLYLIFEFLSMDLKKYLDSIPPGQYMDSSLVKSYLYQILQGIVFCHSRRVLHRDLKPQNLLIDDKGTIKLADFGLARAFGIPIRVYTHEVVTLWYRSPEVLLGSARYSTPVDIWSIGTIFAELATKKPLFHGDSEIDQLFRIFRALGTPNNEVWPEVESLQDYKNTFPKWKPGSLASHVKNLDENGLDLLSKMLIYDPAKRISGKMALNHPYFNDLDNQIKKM
Cyclin-dependent kinase 1/cyclin B1, sequence (P14635 whole entry, further chain): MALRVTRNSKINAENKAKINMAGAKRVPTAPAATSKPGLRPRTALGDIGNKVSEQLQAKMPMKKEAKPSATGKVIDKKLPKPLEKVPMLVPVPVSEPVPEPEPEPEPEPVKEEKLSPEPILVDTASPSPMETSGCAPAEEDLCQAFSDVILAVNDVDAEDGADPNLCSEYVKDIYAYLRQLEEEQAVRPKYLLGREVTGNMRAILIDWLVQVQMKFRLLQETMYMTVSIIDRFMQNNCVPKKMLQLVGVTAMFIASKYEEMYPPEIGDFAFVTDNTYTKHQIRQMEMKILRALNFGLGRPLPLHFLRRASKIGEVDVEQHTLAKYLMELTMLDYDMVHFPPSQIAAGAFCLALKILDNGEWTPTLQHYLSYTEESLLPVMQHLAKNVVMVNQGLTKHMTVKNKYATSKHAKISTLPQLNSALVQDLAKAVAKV

[3] = target: Cyclin-dependent kinase 4/cyclin D1 (Homo sapiens, UniProt P11802); experiment: Inhibition of CDK4/cyclin D1 expressed in Sf9 cells-baculovirus system assessed as retinoblastoma susceptibility gene product phosphorylation
Cyclin-dependent kinase 4/cyclin D1, sequence (P11802 whole entry): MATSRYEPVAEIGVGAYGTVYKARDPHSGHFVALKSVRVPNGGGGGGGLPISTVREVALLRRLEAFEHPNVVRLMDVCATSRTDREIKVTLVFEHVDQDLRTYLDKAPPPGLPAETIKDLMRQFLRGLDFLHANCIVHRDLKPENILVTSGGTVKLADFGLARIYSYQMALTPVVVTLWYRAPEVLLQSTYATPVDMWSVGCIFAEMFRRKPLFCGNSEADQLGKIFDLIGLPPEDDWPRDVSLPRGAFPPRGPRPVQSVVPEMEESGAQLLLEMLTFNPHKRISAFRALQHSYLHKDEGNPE
Cyclin-dependent kinase 4/cyclin D1, sequence (P24385 whole entry, further chain): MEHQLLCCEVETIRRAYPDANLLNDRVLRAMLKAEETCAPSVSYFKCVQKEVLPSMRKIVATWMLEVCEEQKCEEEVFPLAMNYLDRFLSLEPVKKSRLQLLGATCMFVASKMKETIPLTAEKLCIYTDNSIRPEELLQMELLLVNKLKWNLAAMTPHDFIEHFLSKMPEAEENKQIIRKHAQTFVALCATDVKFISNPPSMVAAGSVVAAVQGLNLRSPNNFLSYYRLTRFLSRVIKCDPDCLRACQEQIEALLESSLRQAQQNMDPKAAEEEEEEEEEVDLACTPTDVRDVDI

[4] = Aqueous solubility at pH 7.4; assay type: physicochemical
HCT-116 = experiment: Antiproliferative activity against human HCT116 cells by SRB method; assay type: functional, cell-based
MCF7 = experiment: Antiproliferative activity against human MCF7 cells by SRB method; assay type: functional, cell-based

Compound	IC50 [1] [µM]	IC50 [2] [µM]	IC50 [3] [µM]	solubility [4] [µg/mL]	IC50 (HCT-116) [µM]	IC50 (MCF7) [µM]
O=C1NC(=O)c2ccc(-c3ccccc3)cc2/C1=C/Nc1ccc(CN2CCCCC2)cc1	> 50	> 50	0.32			
CC1CN(c2ccc(N/C=C3\C(=O)NC(=O)c4ccc(I)cc43)cc2)CCN1C (centres undefined)	> 50	> 50		5 (≈ 9.95 µM)		
CN1CCN(c2ccc(N/C=C3\C(=O)NC(=O)c4ccc(-n5cccc5)cc43)cc2)CC1	> 50	> 50	0.14		1.5	2.3
CN1CCN(c2ccc(N/C=C3\C(=O)NC(=O)c4ccc(-c5ccoc5)cc43)cc2F)CC1		> 50			2.2	0.9
CN1CCN(c2ccc(N/C=C3\C(=O)NC(=O)c4ccc(C(=O)N(C)C)cc43)cc2)CC1		> 50				
CN1CCN(c2ccc(N/C=C3\C(=O)NC(=O)c4ccc(-c5ccccc5)cc43)cc2)CC1	> 50	> 50	0.39			
CC(=O)Nc1ccc2c(c1)/C(=C/Nc1ccc(CN3CCCCC3)cc1)C(=O)NC2=O		> 50	3.5			
CN1CCN(c2ccc(N/C=C3\C(=O)NC(=O)c4cc(Br)ccc43)cc2)CC1		> 50	12.1			
CN1CCN(c2ncc(N/C=C3\C(=O)NC(=O)c4ccc(-c5ccoc5)cc43)cn2)CC1					1.1	3.2
O=C1NC(=O)c2ccc(-c3ccoc3)cc2/C1=C/Nc1ccc(CN2CCCCC2)cc1	> 50	> 50				
CN1CCN(c2ccc(N/C=C3\C(=O)NC(=O)c4ccc(-c5ccsc5)cc43)cc2)CC1		> 50	0.1		1.4	2.3
O=C1NC(=O)c2ccc([N+](=O)[O-])cc2/C1=C/Nc1ccc(CN2CCCCC2)cc1	> 50	> 50	15.1			
O=C1NC(=O)c2ccccc2/C1=C/Nc1ccc(N2CCOCC2)cc1		> 29	> 29			
O=C1NC(=O)c2ccc(-n3cccc3)cc2/C1=C/Nc1ccc(CN2CCCCC2)cc1	> 50	> 50	0.14		2.7	2.1
O=C1NC(=O)c2ccc(Nc3ccccc3)cc2/C1=C/Nc1ccc(CN2CCCCC2)cc1		> 50				
O=C1NC(=O)c2ccccc2/C1=C/Nc1ccc(CN2CCCCC2)cc1	19.6	> 27	3.3			
O=C1NC(=O)c2ccc(-c3cccnc3)cc2/C1=C/Nc1ccc(CN2CCCCC2)cc1	> 50	> 50	0.05			
CN1CCN(c2ccc(N/C=C3\C(=O)NC(=O)c4ccc(I)cc43)cc2)CC1		> 50		1 (≈ 2.05 µM)		
COc1ccc(-c2ccc3c(c2)/C(=C/Nc2ccc(CN4CCCCC4)cc2)C(=O)NC3=O)cc1	> 50	> 50	0.13			
O=C1NC(=O)c2ccccc2/C1=C/Nc1ccc(CN2CCOCC2)cc1	21	> 27	10			
CN1CCN(c2ccc3c(c2)/C(=C/Nc2ccc(CN4CCCCC4)cc2)C(=O)NC3=O)CC1	> 50	> 50				
C[C@@H]1CN(c2ccc(N/C=C3\C(=O)NC(=O)c4ccc(I)cc43)cc2)C[C@H](C)N1	> 50	> 50	1	12 (≈ 23.9 µM)		
O=C1NC(=O)c2ccc(N3CCOCC3)cc2/C1=C/Nc1ccc(CN2CCCCC2)cc1	> 50	> 50				
CN1CCN(c2ccc(N/C=C3\C(=O)NC(=O)c4ccc(-c5ccoc5)cc43)cn2)CC1	> 50	> 50	0.11			

Compound	IC50 [1] [µM]	IC50 [2] [µM]	IC50 [3] [µM]	solubility [4] [µg/mL]	IC50 (HCT-116) [µM]	IC50 (MCF7) [µM]
O=C1NC(=O)c2ccc(Cl)cc2/C1=C/Nc1ccc(CN2CCCCC2)cc1		> 50				
O=C1NC(=O)c2ccc(-c3ccc(O)cc3)cc2/C1=C/Nc1ccc(CN2CCCCC2)cc1	> 50	> 50				
CN1CCN(c2cnc(N/C=C3\C(=O)NC(=O)c4ccc(-c5ccoc5)cc43)cn2)CC1			1.25		0.95	1.3
COc1cccc(-c2ccc3c(c2)/C(=C/Nc2ccc(CN4CCCCC4)cc2)C(=O)NC3=O)c1		> 50				
CN1CCN(c2ccc(N/C=C3\C(=O)NC(=O)c4ccc(N5CCCCC5)cc43)cc2)CC1	> 50	> 50	1.62			
C[C@@H]1CN(c2ccc(N/C=C3\C(=O)NC(=O)c4ccc(I)cc43)cc2)[C@@H](C)CN1C	> 50	> 50	3	4 (≈ 7.75 µM)	5	1
O=C1NC(=O)c2ccc(-c3cccc(O)c3)cc2/C1=C/Nc1ccc(CN2CCCCC2)cc1	> 50	> 50			1.3	2
O=C1NC(=O)c2ccc(-c3ccc(Cl)cc3)cc2/C1=C/Nc1ccc(CN2CCCCC2)cc1	> 50	> 50				
O=C1NC(=O)c2ccc(-c3ccsc3)cc2/C1=C/Nc1ccc(CN2CCCCC2)cc1		> 50	0.13		1	3.4
CN1CCN(c2ccc(N/C=C3\C(=O)NC(=O)c4ccccc43)cc2)CC1	> 28	> 28	4.1			
O=C1NC(=O)c2ccc(-c3ccc(F)cc3)cc2/C1=C/Nc1ccc(CN2CCCCC2)cc1	> 50	> 50			1	0.55
CN1CCN(c2ccc(N/C=C3\C(=O)NC(=O)c4ccc(-c5ccco5)cc43)cc2)CC1	> 50	> 50	0.33			
CN1CCN(c2ccc(N/C=C3\C(=O)NC(=O)c4ccc(/C=C/c5ccccc5)cc43)cc2)CC1			14.3			
CN1CC2CC1CN2c1ccc(N/C=C2\C(=O)NC(=O)c3ccc(I)cc32)cc1 (centres undefined)	> 50	> 50	0.32	18 (≈ 36 µM)	1.9	2.6
O=C1NC(=O)c2ccc(I)cc2/C1=C/Nc1ccc(CN2CCCCC2)cc1		> 50			2.7	1
COc1ccc2c(c1)/C(=C/Nc1ccc(CN3CCCCC3)cc1)C(=O)NC2=O	> 50	> 50	2			
CN1CCN(c2ccc(N/C=C3\C(=O)NC(=O)c4ccc(-c5ccoc5)cc43)nn2)CC1					1.9	4.5
CN1CCN(c2ccc(N/C=C3\C(=O)NC(=O)c4ccc(-c5ccoc5)cc43)cc2)CC1		> 50			1.2	1.1
CN1CCN(c2ccc(N/C=C3\C(=O)NC(=O)c4ccc(-c5ccoc5)cc43)nc2)CC1		> 50				
O=C1NC(=O)c2ccc(N3CCCCC3)cc2/C1=C/Nc1ccc(CN2CCCCC2)cc1	> 50	> 50	1			
O=C1NC(=O)c2ccc(-c3ccc(Oc4ccccc4)cc3)cc2/C1=C\Nc1ccc(CN2CCCCC2)cc1	> 50	> 50	> 50			
CN(C)C(=O)c1ccc2c(c1)/C(=C/Nc1ccc(CN3CCCCC3)cc1)C(=O)NC2=O	39.8	> 50				
C[C@@H]1CN(c2ccc(N/C=C3\C(=O)NC(=O)c4ccc(I)cc43)cc2)C[C@H](C)N1C		> 50		4 (≈ 7.75 µM)		
CC(=O)Nc1ccc2c(c1)/C(=C/Nc1ccc(N3CCN(C)CC3)cc1)C(=O)NC2=O	> 50	13.8	11			
